Assay results taken from patent US8541588B2, “Sulfonamide derivatives” (Pfizer Limited, priority 2009, dated 2013).
pIC50: −log10 of the molar value.

What follows are compounds tested against T1, Nav1.7 (or SCN9A) channel; HEK cells stably transfected with hSCN9A (Homo sapiens, UniProt Q15858) (assay: Nav1.7 block, PatchXpress 7000 automated whole-cell voltage clamp, estimated IC50 (EIC50)). Conditions: PatchXpress platform; hSCN9A HEK cells held at V1/2 of inactivation; estimated IC50.
T1 construct: expressed in transfected cells
Format: cell-based

T1 sequence (Q15858 whole entry): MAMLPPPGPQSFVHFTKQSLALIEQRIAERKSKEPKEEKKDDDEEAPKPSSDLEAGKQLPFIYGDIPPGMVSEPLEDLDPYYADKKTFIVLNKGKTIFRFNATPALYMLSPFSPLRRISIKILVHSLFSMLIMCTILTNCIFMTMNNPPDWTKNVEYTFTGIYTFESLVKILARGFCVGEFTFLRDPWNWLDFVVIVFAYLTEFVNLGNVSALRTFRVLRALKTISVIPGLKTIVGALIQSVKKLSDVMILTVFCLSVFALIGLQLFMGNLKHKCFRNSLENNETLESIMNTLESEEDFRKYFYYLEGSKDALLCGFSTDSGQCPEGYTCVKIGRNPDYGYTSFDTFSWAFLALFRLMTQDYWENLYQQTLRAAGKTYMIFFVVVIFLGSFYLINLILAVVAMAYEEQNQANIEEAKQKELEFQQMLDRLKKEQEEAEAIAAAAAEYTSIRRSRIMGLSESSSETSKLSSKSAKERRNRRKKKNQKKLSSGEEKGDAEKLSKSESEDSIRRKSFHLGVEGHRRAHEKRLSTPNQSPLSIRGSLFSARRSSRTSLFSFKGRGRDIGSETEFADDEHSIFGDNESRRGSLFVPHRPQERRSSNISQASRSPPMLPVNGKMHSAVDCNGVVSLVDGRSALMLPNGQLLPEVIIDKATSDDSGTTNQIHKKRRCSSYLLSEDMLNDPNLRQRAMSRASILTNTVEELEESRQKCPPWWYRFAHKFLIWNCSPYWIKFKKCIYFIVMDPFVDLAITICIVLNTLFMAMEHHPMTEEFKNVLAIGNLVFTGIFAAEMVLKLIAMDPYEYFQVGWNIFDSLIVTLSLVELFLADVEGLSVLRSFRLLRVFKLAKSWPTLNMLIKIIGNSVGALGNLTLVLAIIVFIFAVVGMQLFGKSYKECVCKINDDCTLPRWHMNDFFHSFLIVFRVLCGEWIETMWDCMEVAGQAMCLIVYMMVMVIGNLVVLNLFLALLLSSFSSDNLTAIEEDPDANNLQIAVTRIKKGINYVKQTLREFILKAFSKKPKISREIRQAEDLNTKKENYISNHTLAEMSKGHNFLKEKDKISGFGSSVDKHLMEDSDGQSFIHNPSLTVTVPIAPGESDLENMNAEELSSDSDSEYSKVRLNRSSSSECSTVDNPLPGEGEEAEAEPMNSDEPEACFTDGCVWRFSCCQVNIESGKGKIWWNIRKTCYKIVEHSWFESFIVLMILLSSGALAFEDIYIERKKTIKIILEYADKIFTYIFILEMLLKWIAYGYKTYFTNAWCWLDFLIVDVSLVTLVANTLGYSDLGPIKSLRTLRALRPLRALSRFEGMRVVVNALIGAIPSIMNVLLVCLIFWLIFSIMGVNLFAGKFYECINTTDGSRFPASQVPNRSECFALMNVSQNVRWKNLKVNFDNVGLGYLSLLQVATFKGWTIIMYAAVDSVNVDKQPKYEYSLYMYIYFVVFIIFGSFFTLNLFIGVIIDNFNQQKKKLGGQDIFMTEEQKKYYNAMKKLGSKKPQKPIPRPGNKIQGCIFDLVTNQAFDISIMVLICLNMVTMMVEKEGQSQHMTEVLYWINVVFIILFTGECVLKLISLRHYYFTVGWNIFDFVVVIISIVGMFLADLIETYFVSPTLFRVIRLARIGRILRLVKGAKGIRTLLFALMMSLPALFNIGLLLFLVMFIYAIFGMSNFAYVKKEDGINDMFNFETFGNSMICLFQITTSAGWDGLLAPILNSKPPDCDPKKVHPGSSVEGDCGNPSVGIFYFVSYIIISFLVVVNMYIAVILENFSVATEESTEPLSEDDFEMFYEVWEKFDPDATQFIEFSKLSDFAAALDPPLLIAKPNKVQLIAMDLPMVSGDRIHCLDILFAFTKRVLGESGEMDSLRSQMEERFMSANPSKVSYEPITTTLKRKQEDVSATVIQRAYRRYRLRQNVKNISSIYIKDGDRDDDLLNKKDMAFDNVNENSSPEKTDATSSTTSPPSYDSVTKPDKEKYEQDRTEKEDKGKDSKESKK

Compared with `N#Cc1cc(S(=O)(=O)Nc2ncns2)ccc1Oc1ccccc1-c1ccccc1` [Example 24, 4-(biphenyl-2-yloxy)-3-cyano-N-(1,2,4-thiadiazol-5-yl)benzenesulfonamide], `N#Cc1cc(S(=O)(=O)Nc2ncc(Cl)s2)ccc1Oc1ccccc1-c1ccccc1` [Example 146, 4-(biphenyl-2-yloxy)-N-(5-chloro-1,3-thiazol-2-yl)-3-cyanobenzenesulfonamide] is 0.91 log units lower in pIC50: 6.96 for the first, 6.05 for the second.

Going from `N#Cc1cc(S(=O)(=O)Nc2ncns2)ccc1Oc1ccccc1-c1ccc(OC(F)(F)F)cc1` [Example 57, 3-cyano-N-1,2,4-thiadiazol-5-yl-4-{[4′-(trifluoromethoxy)biphenyl-2-yl]oxy}benzenesulfonamide] to `Cc1cccc(-c2ccc(F)cc2)c1Oc1ccc(S(=O)(=O)Nc2ncns2)cc1C#N` [Example 39, 3-cyano-4-[(4′-fluoro-3-methylbiphenyl-2-yl)oxy]-N-1,2,4-thiadiazol-5-ylbenzenesulfonamide], the pIC50 falls from 6.18 to 5.69 (0.49 log units).

`N#Cc1cc(S(=O)(=O)Nc2ncns2)ccc1Oc1cc(C2CC2)nn1-c1cc(F)ccc1F` [Example 87, 3-cyano-4-{[3-cyclopropyl-1-(2,5-difluorophenyl)-1H-pyrazol-5-yl]oxy}-N-1,2,4-thiadiazol-5-ylbenzenesulfonamide] and `N#Cc1cc(S(=O)(=O)Nc2nccs2)ccc1Oc1ccc(-c2ccccc2)cc1` [Example 187, 4-(biphenyl-4-yloxy)-3-cyano-N-thiazol-2-yl-benzenesulfonamide] are within 0.2 log units of each other in pIC50: 5.80 for the first, 5.78 for the second.

For `O=S(=O)(Nc1nccs1)c1ccc(Oc2ccccc2C2CCCCO2)c(F)c1` (centres unmarked) [Example 133, 3-fluoro-4-[2-(tetrahydro-2H-pyran-2-yl)phenoxy]-N-1,3-thiazol-2-ylbenzenesulfonamide], the pIC50 was 4.94.

Same assay, conditions: estimated IC50; hSCN9A HEK cells, PatchXpress platform; Examples 283-814

Compared with `N#Cc1cc(S(=O)(=O)Nc2ncns2)ccc1Oc1ccc(I)cc1-c1cn[nH]c1` [Example 289, 3-cyano-4-[4-iodo-2-(1H-pyrazol-4-yl)phenoxy]-N-1,2,4-thiadiazol-5-ylbenzenesulfonamide], `N#Cc1cc(S(=O)(=O)Nc2ncc(Cl)s2)ccc1Oc1ccc(OC(F)(F)F)cc1-c1cn[nH]c1` [Example 591, N-(5-Chloro-1,3-thiazol-2-yl)-3-cyano-4-[2-(1H-pyrazol-4-yl)-4-(trifluoromethoxy)phenoxy]benzenesulfonamide] is 0.73 log units higher in pIC50: 6.41 for the first, 7.14 for the second.

`CC(C)(C)n1nccc1-c1cc(F)ccc1Oc1ccc(S(=O)(=O)Nc2ncns2)cc1C#N` [Example 285, 4-[2-(1-tert-butyl-1H-pyrazol-5-yl)-4-fluorophenoxy]-3-cyano-N-1,2,4-thiadiazol-5-ylbenzenesulfonamide] and `CCn1nc(C(C)(C)C#N)cc1-c1ccc(Oc2ccc(S(=O)(=O)Nc3nccs3)cc2C#N)cc1` [Example 548, 3-cyano-4-{4-[3-(1-cyano-1-methylethyl)-1-ethyl-1H-pyrazol-5-yl]phenoxy}-N-1,3-thiazol-2-ylbenzenesulfonamide] are within 0.2 log units of each other in pIC50: 6.21 for the first, 6.39 for the second.

`O=S(=O)(Nc1ccc(F)cn1)c1cc(F)c(Oc2ccc(Cl)cc2C2CCNCC2)cc1F` [Example 561, 4-(4-chloro-2-piperidin-4-ylphenoxy)-2,5-difluoro-N-(5-fluoropyridin-2-yl)benzenesulfonamide] and `Cn1nccc1-c1cc(F)ccc1Oc1cc(F)c(S(=O)(=O)Nc2csnn2)cc1Cl` [Example 364, 5-chloro-2-fluoro-4-(4-fluoro-2-(1-methyl-1H-pyrazol-5-yl)phenoxy)-N-(1,2,3-thiadiazol-4-yl)benzenesulfonamide] are within 0.2 log units of each other in pIC50: 6.42 for the first, 6.32 for the second.

`N#Cc1ccc(Oc2cc(F)c(S(=O)(=O)Nc3ncc(Cl)s3)cc2F)c(-c2cn[nH]c2)c1` [Example 771, N-(5-chloro-1,3-thiazol-2-yl)-4-[4-cyano-2-(1H-pyrazol-4-yl)phenoxy]-2,5-difluorobenzenesulfonamide] and `Cn1nccc1-c1cc(F)ccc1Oc1c(F)cc(S(=O)(=O)Nc2ncns2)cc1C#N` [Example 675, 3-cyano-5-fluoro-4-[4-fluoro-2-(1-methyl-1H-pyrazol-5-yl)phenoxy]-N-1,2,4-thiadiazol-5-ylbenzenesulfonamide] are within 0.2 log units of each other in pIC50: 6.62 for the first, 6.43 for the second.

First: N#Cc1cc(S(=O)(=O)Nc2ncc(Cl)s2)ccc1Oc1ccc(Cl)cc1-c1ccnc(CO)c1 [Example 586, 4-{4-Chloro-2-[2-(hydroxymethyl)pyridin-4-yl]phenoxy}-N-(5-chloro-1,3-thiazol-2-yl)-3-cyanobenzenesulfonamide]
Second: N#Cc1cc(S(=O)(=O)Nc2ncns2)ccc1Oc1ccc(OC(F)(F)F)cc1-c1ccn[nH]1 [Example 793, 3-cyano-4-[2-(1H-pyrazol-5-yl)-4-(trifluoromethoxy)phenoxy]-N-1,2,4-thiadiazol-5-ylbenzenesulfonamide]
The pIC50 of the first is 1.66 log units lower: 6.85 for the first, 8.51 for the second.

Compared with `O=S(=O)(Nc1ncns1)c1cc(F)c(Oc2cc(F)c(Cl)cc2-c2ccn[nH]2)cc1F` [Example 762, 4-[4-chloro-5-fluoro-2-(1H-pyrazol-5-yl)phenoxy]-2,5-difluoro-N-1,2,4-thiadiazol-5-ylbenzenesulfonamide], `N#Cc1cc(S(=O)(=O)Nc2nccs2)ccc1Oc1ccc(Cl)cc1-n1ccnn1` [Example 322, 4-[4-chloro-2-(1H-1,2,3-triazol-1-yl)phenoxy]-3-cyano-N-1,3-thiazol-2-ylbenzenesulfonamide] is 2.12 log units lower in pIC50: 8.38 for the first, 6.26 for the second.

Going from `N#Cc1cc(S(=O)(=O)Nc2nccc(C(F)(F)F)n2)ccc1Oc1ccccc1-c1ccccc1` [Example 434, 4-(biphenyl-2-yloxy)-3-cyano-N-[4-(trifluoromethyl)pyrimidin-2-yl]benzenesulfonamide] to `Cc1cn(C(F)F)nc1-c1ccc(Oc2ccc(S(=O)(=O)Nc3nccs3)cc2C#N)cc1` [Example 471, 3-cyano-4-{4-[1-(difluoromethyl)-4-methyl-1H-pyrazol-3-yl]phenoxy}-N-1,3-thiazol-2-ylbenzenesulfonamide], the pIC50 rises from 4.74 to 5.57 (0.83 log units).

Compared with “4-(4-chloro-2-piperidin-4-ylphenoxy)-2,5-difluoro-N-1,2,4-thiadiazol-5-ylbenzenesulfonamide [Example 636]”, `Cc1ccnc(NS(=O)(=O)c2ccc(Oc3ccccc3-c3ccccc3)c(C#N)c2)n1` [Example 425, 4-(biphenyl-2-yloxy)-3-cyano-N-(4-methylpyrimidin-2-yl)benzenesulfonamide] is 3.12 log units lower in pIC50: 8.08 for the first, 4.96 for the second. The first is the more potent here.

Compared with `Cn1nc(C(F)(F)F)cc1-c1ccc(Oc2ccc(S(=O)(=O)Nc3ncns3)cc2C#N)c(C#N)c1` [Example 293, 3-cyano-4-{2-cyano-4-[1-methyl-3-(trifluoromethyl)-1H-pyrazol-5-yl]phenoxy}-N-1,2,4-thiadiazol-5-ylbenzenesulfonamide], `Cn1ccc(-c2cc(F)ccc2Oc2cc(F)c(S(=O)(=O)Nc3cscn3)cc2Cl)n1` [Example 522, 5-chloro-2-fluoro-4-[4-fluoro-2-(1-methyl-1H-pyrazol-3-yl)phenoxy]-N-1,3-thiazol-4-ylbenzenesulfonamide] is 1.89 log units lower in pIC50: 7.03 for the first, 5.14 for the second. The first is the more potent here.

Compared with `N#Cc1cc(S(=O)(=O)Nc2nccs2)ccc1Oc1ccc(-c2cccc(C(F)(F)F)n2)cc1` [Example 453, 3-cyano-N-1,3-thiazol-2-yl-4-{4-[6-(trifluoromethyl)pyridin-2-yl]phenoxy}benzenesulfonamide], `N#Cc1cc(S(=O)(=O)Nc2ncc(Br)s2)ccc1Oc1c(Br)cc(Br)cc1-c1ccccc1` [Example 512, N-(5-Bromo-1,3-thiazol-2-yl)-3-cyano-4-[(3,5-dibromobiphenyl-2-yl)oxy]benzenesulfonamide] is 0.30 log units lower in pIC50: 5.77 for the first, 5.47 for the second.

With `Cn1nccc1-c1cccc(Oc2ccc(S(=O)(=O)Nc3nccs3)cc2C#N)c1` [Example 445, 3-cyano-4-[3-(1-methyl-1H-pyrazol-5-yl)phenoxy]-N-1,3-thiazol-2-ylbenzenesulfonamide] the IC50 was greater than 1 µM.
Compound `COC(=O)c1cc(Oc2ccc(S(=O)(=O)Nc3nccs3)cc2C#N)ccc1-n1cc(Cl)cn1` [Example 495, methyl 2-(4-chloro-1H-pyrazol-1-yl)-5-{2-cyano-4-[(1,3-thiazol-2-ylamino)sulfonyl]phenoxy}benzoate] has an IC50 greater than 1 µM.

Same assay, conditions: estimated IC50; hSCN9A HEK cells, PatchXpress platform; Examples 815-1040

Compared with `N#Cc1cc(S(=O)(=O)Nc2ncns2)ccc1Oc1ccc(Cl)cc1-c1ccnn1C1CCOC1` (centres unmarked) [Example 882, 4-{4-chloro-2-[1-(tetrahydrofuran-3-yl)-1H-pyrazol-5-yl]phenoxy}-3-cyano-N-1,2,4-thiadiazol-5-ylbenzenesulfonamide], `COC(=O)N1CC(c2cc(Cl)ccc2Oc2ccc(S(=O)(=O)Nc3nccs3)cc2C#N)C1` [Example 995, methyl 3-(5-chloro-2-{2-cyano-4-[(1,3-thiazol-2-ylamino)sulfonyl]phenoxy}phenyl)azetidine-1-carboxylate] is 1.51 log units lower in pIC50: 7.40 for the first, 5.89 for the second.

Compared with `O=C(c1cccc(-c2cc(Cl)ccc2Oc2cc(F)c(S(=O)(=O)Nc3ncns3)cc2Cl)c1)N1CC(O)C1` [Example 824, 5-chloro-4-({5-chloro-3′-[(3-hydroxyazetidin-1-yl)carbonyl]biphenyl-2-yl}oxy)-2-fluoro-N-1,2,4-thiadiazol-5-ylbenzenesulfonamide], `CN1CC(n2nccc2-c2cc(OC(F)(F)F)ccc2Oc2cc(F)c(S(=O)(=O)Nc3nncs3)cc2Cl)C1` [Example 1017, 5-chloro-2-fluoro-4-{2-[1-(1-methylazetidin-3-yl)-1H-pyrazol-5-yl]-4-(trifluoromethoxy)phenoxy}-N-1,3,4-thiadiazol-2-ylbenzenesulfonamide] is 0.35 log units higher in pIC50: 8.33 for the first, 8.68 for the second. The second is the more potent here.

In the case of `O=S(=O)(Nc1nncs1)c1cc(Cl)c(Oc2cc(F)c(OC(F)(F)F)cc2-c2ccnnc2)cc1F` [Example 963, 5-chloro-2-fluoro-4-[5-fluoro-2-pyridazin-4-yl-4-(trifluoromethoxy)phenoxy]-N-1,3,4-thiadiazol-2-ylbenzenesulfonamide], the pIC50 was 7.82.

In the case of `N#Cc1cc(S(=O)(=O)Nc2ncns2)ccc1Oc1ccc(C(F)(F)F)cc1-c1ccc[n+]([O-])c1` [Example 979, 3-cyano-4-[2-(1-oxidopyridin-3-yl)-4-(trifluoromethyl)phenoxy]-N-1,2,4-thiadiazol-5-ylbenzenesulfonamide], the IC50 was 0.11 µM.
